Measurements published in patent publication US10920198B2, “Delta133p53beta and delta133p53gamma isoforms are biomarkers of cancer stem cells” (Centre National de la Recherche Scientifique (CNRS), priority 2015, dated 2021).

Experiments:
[1] = system: MCF-7 cells; assay: Mammosphere formation in MCF-7 cells; type: cell-based, human
Method: (§1) For mammosphere formation, 1000 cells/ml (500 cells/well) were plated in Ultra Low Cluster Plate, 24-well, Flat Bottom (Corning Inc) with MammoCult™ Medium enriched with MammoCult™ Proliferation Supplements, hydrocortisone and heparin (Stem Cell Technologies) and cultured for 15 days. For all mammosphere assays, at least three independent experiments for each condition were carried out and repeated 8-12 times. For self-renewal experiments, transfected cells were subjected to a first cycle of mammosphere formation. Upon 15 days of culture the created mammospheres were dissociated and cells were re-plated in identical conditions as for the first plating.

[2] = system: c-Myc, Sox 2, Oct 3/4 and Nanog; assay: Expression of pluripotency/reprogramming factors in MCF-7 cells (RT-qPCR, western blot); type: cell-based, human
Text: (§2) The following antibodies were used for immunoblotting: anti-c-Myc (9E10 mouse hybridoma clone), -Nanog (sc-81961, Santa Cruz Biotechnology), -Oct 3/4 (sc-8630, Santa Cruz Biotechnology), -Sox 2 (sc-17320, Santa Cruz Biotechnology), -p53 (DO-1; sc-126 Santa Cruz Biotechnology), -p53 Sapu (Vojtesek et al. 1995), -α-tubulin (clone DM1A, Sigma-Aldrich), -β-actin (clone AC-74 Sigma-Aldrich), -p21 (sc-397 Santa Cruz Biotechnology) and -Flag (clone M2; Sigma-Aldrich). Secondary HRP-conjugated antibodies were from GE Healthcare. For luminescence quantification, cells were serially diluted and incubated with 0.5 mM D-luciferin (Sigma). Luminescence was quantified with a Polarstar Omega instrument (BMG LABTECH).
(§3) Total RNA was extracted (Qiagen) and reverse transcription (RT) was performed with 1-5 μg of total RNA using the SuperScript® III Reverse Transcriptase (Life Technologies) at 50° C. Levels of different mRNAs were quantified by real-time qPCR on a LightCycler480 apparatus (Roche). Briefly, 20 ng cDNA was amplified using 0.168 μM of each primer, 0.2 μM of probe (Table 4) and 1× LightCycler® 480 Probes Master Mix (Roche) for the p53 isoforms, or commercially available primers (Qiagen) and 1× LightCycler® 480 Sybr Green Master Mix (Roche) for the other genes. Data were normalized to the internal standard TBP. The different primers used and their corresponding sequences have been previously described (Bourdon et al., 2005). For each single-well amplification reaction, a threshold cycle (Ct) was calculated by using the LightCycler480 program (Roche) in the exponential phase of amplification. Relative changes in gene expression were determined using the 2ΔΔCt method and reported relative to a control. All quantification studies were performed with at least three independent experiments, repeated twice, for each condition. Data are presented as the arithmetic mean±SEM.

[3] = system: Δ133p53 (α, β and γ) isoforms; assay: Expression of Δ133p53 isoforms in MCF-7 cells (RT-qPCR, western blot); type: cell-based, human; conditions: MCF-7, etoposide treatment; RT-qPCR and western blot
Text: as §2
Total RNA was extracted (Qiagen) and reverse transcription (RT) was performed with 1-5 μg of total RNA using the SuperScript® III Reverse Transcriptase (Life Technologies) at 50° C. Levels of different mRNAs were quantified by real-time qPCR on a LightCycler480 apparatus (Roche). […] For each single-well amplification reaction, a threshold cycle (Ct) was calculated by using the LightCycler480 program (Roche) in the exponential phase of amplification. Relative changes in gene expression were determined using the 2ΔΔCt method and reported relative to a control. All quantification studies were performed with at least three independent experiments, repeated twice, for each condition. […]

[4] = system: p53, p21; assay: Western blot of p53 and p21 in MCF-7 cells after etoposide; type: cell-based, human; conditions: MCF-7, increasing concentrations of etoposide, 16 hours
Method: (§4) The human breast cancer cell lines MCF-7, MDA-MB 231 […] and […] were grown in MEM supplemented with 10% FCS, sodium pyruvate and glutamine. Following viral infection, cells were used after 24-48 h or subjected to selection with 2 μg/ml puromycin (InvivoGen) or 300 μg/ml hygromycin B (Invitrogen) for two days. Etoposide treatment was performed with final doses of 12.5, 25 and 50 ng/ml for 16 h or 50 ng/ml/day for 7 days. […] Secondary HRP-conjugated antibodies were from GE Healthcare. For luminescence quantification, cells were serially diluted and incubated with 0.5 mM D-luciferin (Sigma). Luminescence was quantified with a Polarstar Omega instrument (BMG LABTECH).

[5] = system: c-Myc, Oct 3/4, Nanog and Sox 2; assay: Expression of pluripotency/reprogramming factors in MDA-MB-231 D3H2LN cells (RT-qPCR, western blot); type: cell-based, human
Method: (§5) The human breast cancer cell lines MCF-7, MDA-MB 231 D3H2LN and C3LND were grown in MEM supplemented with 10% FCS, sodium pyruvate and glutamine. Following viral infection, cells were used after 24-48 h or subjected to selection with 2 μg/ml puromycin (InvivoGen) or 300 μg/ml hygromycin B (Invitrogen) for two days. Etoposide treatment was performed with final doses of 12.5, 25 and 50 ng/ml for 16 h or 50 ng/ml/day for 7 days.
as §2, §3

[6] = system: Δ133p53 (α, β and γ) isoforms; assay: Expression of Δ133p53 isoforms in MDA-MB-231 D3H2LN cells after etoposide; type: cell-based, human; conditions: not dose-dependent
Method: as §5, with “D3H2LN” left out, “C3LND” left out

[7] = system: p53, p21; assay: Western blot of p53 and p21 in MDA-MB-231 D3H2LN cells after etoposide; type: cell-based, human; conditions: MDA-MB-231 D3H2LN (p53 R280K), increasing concentrations of etoposide
Method: as §4

[8] = system: SW480 colon carcinoma cells; assay: Colosphere formation in SW480 colon carcinoma cells; type: cell-based, human; conditions: compared to control shLuc
Method: as §1
The same protocol has been used with human colon carcinoma cell line SW480.

[9] = system: MDA-MB-231 C3LND cells; assay: Mammosphere formation in MDA-MB-231 C3LND cells; type: cell-based, human; conditions: C3LND cells after transduction
Method: as §1

[10] = system: c-Myc, Oct 3/4, Nanog and Sox 2; assay: RT-qPCR of pluripotency/reprogramming factors in MDA-MB-231 C3LND cells; type: cell-based, human; conditions: C3LND cells after transduction
Method: as §3

[11] = system: MDA-MB-231 C3LND cells; assay: Flow cytometry of CD44/CD24 double labeling in MDA-MB-231 C3LND cells; type: cell-based, human; conditions: C3LND cells after transduction
Method: Single cell suspensions were labeled on ice with CD24-FITC, CD44-PE and their respective isotype controls (BioLegend) at the dilutions indicated by the manufacturer in Phosphate Buffered Saline (PBS) with 10% FBS for 30 min. Cells were then washed once with PBS and re-suspended in PBS/10% FBS. All samples were analyzed on a CyAn analyzer ([…] Coulter, Inc) using Sytox Blue (Life Technologies) to monitor cell viability.

[12] = system: C3LND cancer cells; assay: Distant metastasis after intracardiac injection of C3LND cells in athymic mice (bioluminescence); type: in vivo; conditions: transduced C3LND cells, compared to control cells
Method: All in vivo experiments were performed in compliance with the French regulations and ethical guidelines for experimental animal studies in an accredited establishment (Agreement No. C34-172-27). 2.10^6 control or Sh3-treated C3LND cancer cells were grafted in 6 week-old female athymic mice (Harlan, Le Malourlet, France) by intracardiac injection (n=5-7/group). Bioluminescence detection was used to monitor tumor growth and distal metastasis formation in head and legs. Regions of interest (ROI) were delineated around the tumor sites and the total flux (ph/s) in the ROI was measured.

[13] = system: MDA-MB-231 D3H2LN cells; assay: Mammosphere formation in MDA-MB-231 D3H2LN cells; type: cell-based, human; conditions: overexpression
Method: as §1

[14] = MCF-7 cells after transduction, compared to control cells
[15] = MCF-7 cells after transduction, mRNA and/or protein

COc1cc([C@@H]2c3cc4c(cc3[C@@H](O[C@@H]3O[C@@H]5CO[C@@H](C)O[C@H]5[C@H](O)[C@H]3O)[C@H]3COC(=O)[C@H]23)OCO4)cc(OC)c1O [etoposide, reference compound]
mammosphere formation ([1]; Sh2-transduced MCF-7 cells, 50 ng/ml/day for 7 days): did not have any significant effect | mammosphere formation ([1]; control MCF-7 cells (active TAp53), 50 ng/ml/day for 7 days): significantly reduced | c-Myc expression ([2]; MCF-7, increasing concentrations of etoposide, western blot and RT-qPCR): reduced | Oct 3/4, Nanog and Sox 2 expression ([2]; MCF-7, increasing doses of etoposide, RT-qPCR): strongly up-regulated in a dose-dependent manner | Δ133p53 isoforms expression [3]: strongly up-regulated in a dose-dependent manner | TAp53α level [4]: stabilization | p21 expression [4]: increased | c-Myc expression ([5]; MDA-MB-231 D3H2LN, increasing concentrations of etoposide): significantly down-regulated | expression of Nanog, Sox 2 and Oct 3/4 ([5]; MDA-MB-231 D3H2LN, incubation with etoposide): up-regulated | expression of Δ133p53 isoforms [6]: up-regulated | TAp53 expression [7]: did not affect | p21 expression [7]: only weakly increased

Sh3: shRNA, 5′-GGAGGTGCTTACACATGTT-3′ (SEQ ID NO: 14); targets the 5′ UTR of the Δ133 isoforms (α, β and γ) (target site or template, no part of the molecule; short hairpin RNA, only the targeted sequence is given, further chemistry not given here)
mammosphere formation [1, 14]: significantly reduced | c-Myc expression [2, 15]: not affected | expression of Oct 3/4, Nanog and Sox 2 [2, 15]: significantly down-regulated | Oct 3/4, Nanog and Sox 2 expression ([2]; MCF-7 cells, both etoposide treated and untreated): reduced | colospheres formation [8]: significantly reduced | sphere formation [9]: significant reduction | Oct 3/4, Nanog and Sox 2 expression [10]: marked decrease | c-Myc level [10]: small increase | proportion of CD44+/CD24− cells [11]: decreased | metastasis to distant sites [12]: less prone to metastasize to distant sites

Δ133p53β: human p53 isoform (SEQ ID NO: 1), overexpressed from pMSCVhyg retroviral vector
mammosphere formation [1, 14]: significantly promoted | mammosphere formation after harvesting and re-plating of primary mammospheres ([1]; MCF-7 cells overexpressing the isoform, self-renewal): higher | c-Myc expression [2, 15]: but not of c-Myc | expression of Oct 3/4, Nanog and Sox 2 [2, 15]: significant increase | Oct 3/4, Nanog and Sox 2 expression [10]: increased | mammosphere formation [13]: significant increase | Oct 3/4, Nanog and Sox 2 expression ([5]; D3H2LN cells, overexpression): significant increase | c-Myc level ([5]; D3H2LN cells, overexpression): not affected
